Measured values reported in patent publication US20250145633A1, “SUBSTITUTED FURANOPYRIMIDINE COMPOUNDS AS PDE1 INHIBITORS” (Dart NeuroScience, LLC, priority 2017, published 2025).
Structures can show the parent of a compound that is named as a salt.

Molecular target: human PDE1B enzyme (Homo sapiens (Human), UniProt Q01064)
Assay: IMAP TR-FRET PDE1B enzymatic assay
Type: biochemical
Settings: negative log of half-maximal molar inhibitory concentration; 200 nM FAM-cAMP; values given as bins
Summary of the method: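 Full-length GST-tagged human PDE1B (250 pg/well) in IMAP BSA buffer with 10 U/ml calmodulin and 2.5 mM CaCl2; compound pre-incubated 5 min at room temperature, then 200 nM (final) FAM-cAMP for 30 min. IMAP binding reagent/Tb added, 1 h; TR-FRET 520/490 ratio read. IC50 from sigmoidal dose-response fit.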

Compound | PDE1b (pIC50)
Cc1oc2ncnc(NC3(C)CC3)c2c1C(=O)N1CCC(c2cccc(F)c2)C1 (stereo not shown) [Example 389, 5-[3-(3-Fluorophenyl)pyrrolidine-1-carbonyl]-6-methyl-N-(1-methylcyclopropyl)furo[2,3-d]pyrimidin-4-amine] | >8
Cc1oc2ncnc(NC3(C)CC3)c2c1C(=O)N1CCc2c(cccc2OCF)C1 [Example 764, 5-[5-(Fluoromethoxy)-1,2,3,4-tetrahydroisoquinoline-2-carbonyl]-6-methyl-N-(1-methylcyclopropyl)furo[2,3-d]pyrimidin-4-amine] | >8
Cc1cc(C(F)(F)F)nc(CNC(=O)c2c(C)oc3ncnc(NC4(C)CC4)c23)n1 [Example 649, 6-Methyl-N-{[4-methyl-6-(trifluoromethyl)pyrimidin-2-yl]methyl}-4-[(1-methylcyclopropyl)amino]furo[2,3-d]pyrimidine-5-carboxamide] | >8
Cc1oc2ncnc(NC3(C)CC3)c2c1C(=O)NCCCN1CCCC1 [Example 752, 6-Methyl-4-[(1-methylcyclopropyl)amino]-N-[3-(pyrrolidin-1-yl)propyl]furo[2,3-d]pyrimidine-5-carboxamide] | <6
Cc1ncc(CNC(=O)c2c(C)oc3ncnc(NC4(C)CC4)c23)s1 [Example 743, 6-Methyl-N-[(2-methyl-1,3-thiazol-5-yl)methyl]-4-[(1-methylcyclopropyl)amino]furo[2,3-d]pyrimidine-5-carboxamide] | >8
Cc1oc2ncnc(NC3(C)CC3)c2c1C(=O)NC1(C(C)C)CC1 [Example 147, 6-Methyl-4-[(1-methylcyclopropyl)amino]-N-[1-(propan-2-yl)cyclopropyl]furo[2,3-d]pyrimidine-5-carboxamide] | >8
Cc1oc2ncnc(NC3(C)CC3)c2c1C(=O)N1CCc2c(OCCF)ccnc2C1 [Example 20, 5-[4-(2-Fluoroethoxy)-5,6,7,8-tetrahydro-1,7-naphthyridine-7-carbonyl]-6-methyl-N-(1-methylcyclopropyl)furo[2,3-d]pyrimidin-4-amine trifluoroacetate] | >8

Same assay, conditions: negative log of half-maximal molar inhibitory concentration; 200 nM FAM-cAMP; values given as bins; read-out: PDE1b (pIC50) (converted)

Compound | IC50 [nM]
Cc1oc2ncnc(NC3(C)CC3)c2c1C(=O)N1CC=C(c2ncc(F)cn2)C1 [Example 774, 5-[3-(5-Fluoropyrimidin-2-yl)-2,5-dihydro-1H-pyrrole-1-carbonyl]-6-methyl-N-(1-methylcyclopropyl)furo[2,3-d]pyrimidin-4-amine] | 10 to 100
Cc1oc2ncnc(NC3(C)CC3)c2c1C(=O)NCc1cncnc1 [Example 647, 6-Methyl-4-[(1-methylcyclopropyl)amino]-N-(pyrimidin-5-ylmethyl)furo[2,3-d]pyrimidine-5-carboxamide] | 100 to 1000
Cc1oc2ncnc(NC3(C)CC3)c2c1C(=O)Nc1cnc(N2CCOCC2)nc1 [Example 657, 6-Methyl-4-[(1-methylcyclopropyl)amino]-N-[2-(morpholin-4-yl)pyrimidin-5-yl]furo[2,3-d]pyrimidine-5-carboxamide] | 10 to 100
Cc1oc2ncnc(NC3(C)CC3)c2c1C(=O)N1CCC(C#N)(c2cccc(F)n2)CC1 [Example 444, 4-(6-Fluoropyridin-2-yl)-1-{6-methyl-4-[(1-methylcyclopropyl)amino]furo[2,3-d]pyrimidine-5-carbonyl}piperidine-4-carbonitrile] | 10 to 100
Cc1noc(NC(=O)c2c(C)oc3ncnc(NC4(C)CC4)c23)n1 [Example 452, 6-Methyl-N-(3-methyl-1 2 4-oxadiazol-5-yl)-4-[(1-methylcyclopropyl)amino]furo[2,3-d]pyrimidine-5-carboxamide] | 10 to 100
Cc1oc2ncnc(NC3(C)CC3)c2c1C(=O)Nc1cc(C)n(C)n1 [Example 439, N-(1,5-Dimethyl-1H-pyrazol-3-yl)-6-methyl-4-[(1-methylcyclopropyl)amino]furo[2,3-d]pyrimidine-5-carboxamide] | 100 to 1000
Cc1ncccc1NC(=O)c1c(C)oc2ncnc(NC3(C)CC3)c12 [Example 181, 6-Methyl-4-[(1-methylcyclopropyl)amino]-N-(2-methylpyridin-3-yl)furo[2,3-d]pyrimidine-5-carboxamide] | 10 to 100
Cc1oc2ncnc(NC3(C)CC3)c2c1C(=O)NC(C)(C)C [Example 138, N-tert-Butyl-6-methyl-4-[(1-methylcyclopropyl)amino]furo[2,3-d]pyrimidine-5-carboxamide] | 10 to 100
COc1nccc2c1CCN(C(=O)c1c(C)oc3ncnc(NC4(C)CC4)c13)C2 [Example 40, 5-(5-Methoxy-1,2,3,4-tetrahydro-2,6-naphthyridine-2-carbonyl)-6-methyl-N-(1-methylcyclopropyl)furo[2,3-d]pyrimidin-4-amine] | 10 to 100
COc1ccccc1C(C)NC(=O)c1c(C)oc2ncnc(NC3(C)CC3)c12 (stereo not shown) [Example 613, N-[1-(2-Methoxyphenyl)ethyl]-6-methyl-4-[(1-methylcyclopropyl)amino]furo[2,3-d]pyrimidine-5-carboxamide] | 10 to 100
Cc1ccccc1CCNC(=O)c1c(C)oc2ncnc(NC3(C)CC3)c12 [Example 236, 6-Methyl-4-[(1-methylcyclopropyl)amino]-N-[2-(2-methylphenyl)ethyl]furo[2,3-d]pyrimidine-5-carboxamide] | 10 to 100
Cc1cc(CNC(=O)c2c(C)oc3ncnc(NC4(C)CC4)c23)ncn1 [Example 654, 6-Methyl-4-[(1-methylcyclopropyl)amino]-N-[(6-methylpyrimidin-4-yl)methyl]furo[2,3-d]pyrimidine-5-carboxamide] | 10 to 100
Cc1oc2ncnc(NC3(C)CC3)c2c1C(=O)N1CCc2c(ncnc2OCF)C1 [Example 17, 5-[4-(fluoromethoxy)-5H,6H,7H,8H-pyrido[3,4-d]pyrimidine-7-carbonyl]-6-methyl-N-(1-methylcyclopropyl)furo[2,3-d]pyrimidin-4-amine] | 10 to 100
Cc1oc2ncnc(NC3(C)CC3)c2c1C(=O)NCc1cccs1 [Example 190, 6-Methyl-4-[(1-methylcyclopropyl)amino]-N-(thiophen-2-ylmethyl)furo[2,3-d]pyrimidine-5-carboxamide] | 10 to 100
C#CCN(Cc1ccc(OC)cc1)C(=O)c1c(C)oc2ncnc(NC3(C)CC3)c12 [Example 606, N-[(4-Methoxyphenyl)methyl]-6-methyl-4-[(1-methylcyclopropyl)amino}-N-(prop-2-yn-1-yl)furo[2,3-d]pyrimidine-5-carboxamide] | 10 to 100
COc1ccccc1CN(C)C(=O)c1c(C)oc2ncnc(NC3(C)CC3)c12 [Example 528, N-[(2-Methoxyphenyl)methyl]-N,6-dimethyl-4-[(1-methylcyclopropyl)amino]furo[2,3-d]pyrimidine-5-carboxamide] | 10 to 100
COCCOc1ncnc2c1CCN(C(=O)c1c(C)oc3ncnc(NC4(C)CC4)c13)C2 [Example 809, 5-[4-(2-Methoxyethoxy)-5H,6H,7H,8H-pyrido[3,4-d]pyrimidine-7-carbonyl]-6-methyl-N-(1-methylcyclopropyl)furo[2,3-d]pyrimidin-4-amine] | 10 to 100
COc1ncnc2c1CN(C(=O)c1c(C)oc3ncnc(NC4(C)CC4)c13)CC2 [Example 663, 5-{4-Methoxy-5H,6H,7H,8H-pyrido[4,3-d]pyrimidine-6-carbonyl}-6-methyl-N-(1-methylcyclopropyl)furo[2,3-d]pyrimidin-4-amine] | 100 to 1000
Cc1oc2ncnc(NC3(C)CC3)c2c1C(=O)NC(C)(C)CF [Example 374, N-(1-Fluoro-2-methylpropan-2-yl)-6-methyl-4-[(1-methylcyclopropyl)amino]furo[2,3-d]pyrimidine-5-carboxamide] | 10 to 100
Cc1ncncc1CNC(=O)c1c(C)oc2ncnc(NC3(C)CC3)c12 [Example 659, 6-Methyl-4-[(1-methylcyclopropyl)amino]-N-[(4-methylpyrimidin-5-yl)methyl]furo[2,3-d]pyrimidine-5-carboxamide] | 10 to 100
Cc1nc(NC(=O)c2c(C)oc3ncnc(NC4(C)CC4)c23)ccc1F [Example 436, N-(5-Fluoro-6-methylpyridin-2-yl)-6-methyl-4-[(1-methylcyclopropyl)amino]furo[2,3-d]pyrimidine-5-carboxamide] | 10 to 100
Cc1oc2ncnc(NC3(C)CC3)c2c1C(=O)NC1(C2CCOCC2)CC1 [Example 300, 6-Methyl-4-[(1-methylcyclopropyl)amino]-N-[1-(oxan-4-yl)cyclopropyl]furo[2,3-d]pyrimidine-5-carboxamide] | 10 to 100
Cc1oc2ncnc(NC3(C)CC3)c2c1C(=O)N1CCC(c2ccn(C(C)C)n2)CC1 [Example 781, 6-Methyl-N-(1-methylcyclopropyl)-5-{4-[1-(propan-2-yl)-1H-pyrazol-3-yl]piperidine-1-carbonyl}furo[2,3-d]pyrimidin-4-amine] | 10 to 100
Cc1cnc(C2CCN(C(=O)c3c(C)oc4ncnc(NC5(C)CC5)c34)CC2)nc1C [Example 391, 5-[4-(4,5-Dimethylpyrimidin-2-yl)piperidine-1-carbonyl]-6-methyl-N-(1-methylcyclopropyl)furo[2,3-d]pyrimidin-4-amine] | 10 to 100
COc1ccc(NC(=O)c2c(C)oc3ncnc(NC4(C)CC4)c23)nc1 [Example 144, N-(5-Methoxypyridin-2-yl)-6-methyl-4-[(1-methylcyclopropyl)amino]furo[2,3-d]pyrimidine-5-carboxamide] | 10 to 100
Cc1oc2ncnc(NC3(C)CC3)c2c1C(=O)N1CCN(c2ccnc(F)n2)CC1 [Example 162, 5-[4-(2-Fluoropyrimidin-4-yl)piperazine-1-carbonyl]-6-methyl-N-(1-methylcyclopropyl)furo[2,3-d]pyrimidin-4-amine] | 10 to 100
Cc1oc2ncnc(NC3(C)CC3)c2c1C(=O)Nc1ccc(N2CCOCC2)cc1 [Example 655, 6-Methyl-4-[(1-methylcyclopropyl)amino]-N-[4-(morpholin-4-yl)phenyl]furo[2,3-d]pyrimidine-5-carboxamide] | 10 to 100
